{
  "source": "patent US11267826B2",
  "about": "“Penicillin-binding protein inhibitors” (priority 2017, dated 2022)",
  "key": {"[1]": {"test_system": "hyper-permeable E. coli 901C", "assay": "Broth microdilution MIC assay, hyper-permeable E. coli", "assay_type": "cell-based", "details": "Escherichia coli, read-out: E. coli 901C MIC", "outline": "(§1)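 Following CLSI procedures, compounds were serially diluted 2-fold and challenged with bacteria at 5×10^5 CFU/mL in Mueller-Hinton broth supplemented with divalent cations. After 16-20 hours at 37° C, the lowest concentration without visible growth was recorded as the MIC.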"}, "[2]": {"test_system": "E. coli DH5a harboring NDM-1", "assay": "Broth microdilution MIC, engineered E. coli expressing NDM-1", "assay_type": "cell-based", "details": "Escherichia coli, read-out: MIC, β-lactamase NDM", "description": "(§2) To determine the ability of test compounds to potentiate the inhibition of the growth of bacterial strains, classic cell based broth microdilution MIC assays were employed. MIC assays are performed according to CLSI methods except where otherwise noted (CLSI, 2011 and CLSI, 2009). The reference strain S. aureus ATCC 29213 and the hyper-permeable E. coli 901C were used to determine the ability of the PBP compounds to inhibit bacterial growth. Briefly, cryo-preserved bacterial cultures of clinical strains are streaked for isolation on appropriate agar medium, in this case Mueller Hinton II agar. Following incubation to allow formation of colonies these plates are sealed with parafilm and stored refrigerated for up to two weeks. For preparation of assay inocula and to ensure low variability, at least 5 colonies are picked from the agar plates with an inoculating loop and aseptically transferred to a culture tube containing 3 mL of Mueller-Hinton Broth (supplemented with divalent cations to required levels based on Manufacturers' certification). The broth culture is grown for 3-5 hours at 37° C. with shaking at 200 rpm. Meanwhile, 2-fold serial dilutions of test compounds are conducted in a 96 well plate with a final volume of 75 μL per well at 2-fold the final desired concentration. After the dilution plates are set up the growing cultures are then diluted in a cuvette containing MH II broth and the optical density is measured at 600 nm. Inocula are diluted such that 75 μL of this culture in Mueller-Hinton Broth results in a starting bacterial concentration of 5×10^5 CFU/mL when added to the dilution plates. The plates are incubated 16-20 hours at 37° C. The MIC is read visually as the lowest concentration well with no bacterial growth.\n(§3) To determine if test compounds were affected by various known β-lactamases, the inhibition of the growth of engineered strains of Escherichia coli harboring select single β-lactamases were tested. […]"}, "E. coli PBP3": {"target": "T1, E. coli PBP3 (Escherichia coli, UniProt P0AD68)", "T1 construct": "100 μg's of total membrane protein extracts containing PBPs; endogenous in cells; host or cells: Escherichia coli K12, membrane protein fraction", "T1 sequence (P0AD68 1-577)": "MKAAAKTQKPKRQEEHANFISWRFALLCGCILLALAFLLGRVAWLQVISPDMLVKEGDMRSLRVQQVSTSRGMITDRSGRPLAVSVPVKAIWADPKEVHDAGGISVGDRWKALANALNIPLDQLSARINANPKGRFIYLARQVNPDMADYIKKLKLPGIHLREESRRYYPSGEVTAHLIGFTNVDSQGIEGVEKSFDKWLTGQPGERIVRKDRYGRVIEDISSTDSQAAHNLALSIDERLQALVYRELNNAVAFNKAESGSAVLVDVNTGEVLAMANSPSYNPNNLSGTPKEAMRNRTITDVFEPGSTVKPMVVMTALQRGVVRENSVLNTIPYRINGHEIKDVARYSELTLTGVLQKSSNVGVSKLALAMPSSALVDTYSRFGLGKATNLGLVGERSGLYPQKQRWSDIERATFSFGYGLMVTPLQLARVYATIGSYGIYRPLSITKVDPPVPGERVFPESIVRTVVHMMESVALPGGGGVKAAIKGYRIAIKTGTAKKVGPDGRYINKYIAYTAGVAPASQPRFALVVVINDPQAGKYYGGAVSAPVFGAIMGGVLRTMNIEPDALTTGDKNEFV", "assay": "Bocillin FL competition binding assay, PBP3", "design": "species or system Escherichia coli K12", "details": "15 min pre-incubation", "outline": "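E. coli K12 membrane extracts (100 µg protein) pre-incubated 15 min with compound (0.005–2,480 µg/mL) in pH 7 phosphate/350 mM NaCl, then labelled with Bocillin FL 30 min at 35°C; SDS-PAGE fluorescence (ex 450/em 520 nm), μg/mL reported. PBP1a/1b unresolved, reported combined.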"}, "[3]": {"test_system": "E. coli DH5a with pLBII plasmid with no β-lactamase gene", "assay": "Broth microdilution MIC, engineered E. coli control strain (pLBII plasmid, no β-lactamase gene)", "assay_type": "cell-based", "details": "Escherichia coli, read-out: MIC, β-lactamase None", "description": "as §2, §3"}, "[4]": {"test_system": "E. coli DH5a harboring IMP-18", "assay": "Broth microdilution MIC, engineered E. coli expressing IMP-18", "assay_type": "cell-based", "details": "Escherichia coli, read-out: MIC, β-lactamase IMP", "description": "as §2, §3"}, "[5]": {"test_system": "E. coli DH5a harboring VIM-2", "assay": "Broth microdilution MIC, engineered E. coli expressing VIM-2", "assay_type": "cell-based", "details": "Escherichia coli, read-out: MIC, β-lactamase VIM", "description": "as §2, §3"}, "[6]": {"test_system": "E. coli DH5a harboring TEM-24", "assay": "Broth microdilution MIC, engineered E. coli expressing TEM-24", "assay_type": "cell-based", "details": "Escherichia coli, read-out: MIC, β-lactamase TEM", "description": "as §2, §3"}, "[7]": {"test_system": "E. coli DH5a harboring KPC-2", "assay": "microbe, parasite or virus in culture", "assay_type": "cell-based", "details": "Escherichia coli, read-out: MIC, β-lactamase KPC", "description": "To determine the ability of test compounds to potentiate the inhibition of the growth of bacterial strains, classic cell based broth microdilution MIC assays were employed. MIC assays are performed according to CLSI methods except where otherwise noted (CLSI, 2011 and CLSI, 2009). The reference strain S. aureus ATCC 29213 and the hyper-permeable E. coli 901C were used to determine the ability of the PBP compounds to inhibit bacterial growth. Briefly, cryo-preserved bacterial cultures of clinical strains are streaked for isolation on appropriate agar medium, in this case Mueller Hinton II agar. Following incubation to allow formation of colonies these plates are sealed with parafilm and stored refrigerated for up to two weeks. For preparation of assay inocula and to ensure low variability, at least 5 colonies are picked from the agar plates with an inoculating loop and aseptically transferred to a culture tube containing 3 mL of Mueller-Hinton Broth (supplemented with divalent cations to required levels based on Manufacturers' certification). The broth culture is grown for 3-5 hours at 37° C. with shaking at 200 rpm. […] After the dilution plates are set up the growing cultures are then diluted in a cuvette containing MH II broth and the optical density is measured at 600 nm. […] The MIC is read visually as the lowest concentration well with no bacterial growth. […]"}, "[8]": {"test_system": "engineered strains of Escherichia coli harboring select single β-lactamases", "assay": "MIC across the panel of engineered E. coli strains harboring select single β-lactamases", "assay_type": "cell-based", "details": "strains expressing β-lactamases compared with control strain, result in words", "description": "To determine if test compounds were affected by various known β-lactamases, the inhibition of the growth of engineered strains of Escherichia coli harboring select single β-lactamases were tested. These strains were constructed by cloning the gene encoding the particular β-lactamase into the NdeI and BamHI restriction endonuclease sites of plasmid pLBII, placing the gene(s) under the control of the Lac promoter."}, "S. aureus ATCC 29213": {"test_system": "S. aureus ATCC 29213", "assay": "Broth microdilution MIC assay, S. aureus", "assay_type": "cell-based", "details": "Staphylococcus aureus, ATCC29213; broth microdilution, 16-20 hours at 37° C.; read-out: S. aureus 29213 MIC", "outline": "as §1"}},
  "data": [
    {"smiles": "Nc1nc(/C(=N/O)C(=O)N[C@H]2Cc3cccc(C(=O)O)c3OB2O)cs1", "note": "[Example 6, (R,Z)-3-(2-(2-aminothiazol-4-yl)-2-(hydroxyimino)acetamido)-2-hydroxy-3,4-dihydro-2H-benzo[e][1,2]oxaborinine-8-carboxylic Acid]", "values": [
      {"measurement": "MIC", "setting": "[1]", "value": "< 64", "unit": "µg/mL"},
      {"measurement": "MIC", "setting": "[2]", "value": 16, "unit": "µg/mL"},
      {"measurement": "E. coli PBP3 Potency", "setting": "E. coli PBP3", "value": "B (B represents a potency between 64 and 1000 μg/mL inclusive)"},
      {"measurement": "MIC", "setting": "[3]", "value": 16, "unit": "µg/mL"},
      {"measurement": "MIC", "setting": "[4]", "value": 16, "unit": "µg/mL"},
      {"measurement": "MIC", "setting": "[5]", "value": 16, "unit": "µg/mL"},
      {"measurement": "MIC", "setting": "[6]", "value": 16, "unit": "µg/mL"},
      {"measurement": "MIC", "setting": "[7]", "value": 16, "unit": "µg/mL"},
      {"measurement": "Effect of expressed β-lactamase on MIC", "setting": "[8]", "value": "the same MIC values in strains regardless of the β-lactamase expressed"},
      {"measurement": "MIC", "setting": "S. aureus ATCC 29213", "value": "< 64", "unit": "µg/mL"}
    ]}
  ]
}
